Test results: patent publication US6537986B2, “Oxazolidinone antibacterial agents having a thiocarbonyl funtionality” (Pharmacia & Upjohn Company, priority 1997, dated 2003)
≈ marks a conversion by molar mass, not a printed value. Like-named read-outs stand apart in the source and are kept apart here.

Legend:
E. Faecium (EFAE 12712) = experiment: MIC, standard agar dilution method; format: cell-based; conditions: Enterococcus faecium; Table II; key: E. Faecium; agar dilution, Mueller Hinton agar, incubated overnight at 35° C.; read-out: EFAE 12712 MIC
Description: (§1) MIC Test Method The in vitro MICs of test compounds were determined by a standard agar dilution method. […] Serial 2-fold dilutions of each sample are made using 1.0 ml aliquots of sterile distilled water. To each 1.0 ml aliquot of drug is added 9 ml of molten Mueller Hinton agar medium. The drug-supplemented agar is mixed, poured into 15×100 mm petri dishes, and allowed to solidify and dry prior to inoculation. Vials of each of the test organisms are maintained frozen in the vapor phase of a liquid nitrogen freezer. Test cultures are grown overnight at 35° C. on the medium appropriate for the organism. Colonies are harvested with a sterile swab, and cell suspensions are prepared in Trypticase Soy broth (TSB) to equal the turbidity of a 0.5 McFarland standard. A 1:20 dilution of each suspension is made in TSB. […] The plates are incubated overnight at 35° C. Following incubation the Minimum Inhibitory Concentration (MIC μg/ml), the lowest concentration of drug that inhibits visible growth of the organism, is read and recorded.

[1] = test system: Enterococcus faecalis (EFAE 9217); experiment: MIC, standard agar dilution method; format: cell-based; conditions: incubated overnight at 35° C.
Description: as §1

[2] = test system: Haemophilus influenzae (HINF 30063); experiment: MIC, standard agar dilution method; format: cell-based; conditions: Haemophilus influenzae, Table II, Mueller Hinton agar, incubated overnight at 35° C.
Description: as §1

[3] = test system: Moraxella catarrhalis (MCAT 30610); experiment: MIC, standard agar dilution method; format: cell-based; conditions: Moraxella catarrhalis, Table II, Mueller Hinton agar, incubated overnight at 35° C.
Description: as §1

S. aureus (SAUR 9213) = experiment: MIC, standard agar dilution method; format: cell-based; conditions: Staphylococcus aureus, incubated overnight at 35° C.
Description: as §1

[4] = test system: S. epidermidis (SEPI 30593); experiment: MIC, standard agar dilution method; format: cell-based; conditions: Staphylococcus epidermidis, Table II, Mueller Hinton agar, incubated overnight at 35° C.
Description: as §1

[5] = test system: S. pneumoniae (SPNE 9912); experiment: MIC, standard agar dilution method; format: cell-based; conditions: Streptococcus pneumoniae, incubated overnight at 35° C.
Description: as §1

S. pyogenes (SPYO 152) = experiment: MIC, standard agar dilution method; format: cell-based; conditions: Streptococcus pyogenes, incubated overnight at 35° C.
Description: as §1

[6] = test system: S. epidermidis (SEPI 12084); experiment: MIC, standard agar dilution method; format: cell-based; conditions: Staphylococcus epidermidis, Table 1, Mueller Hinton agar, incubated overnight at 35° C., read-out: Oxazolidinone MIC Values (Gram+) SEPI 12084
Description: MIC Test Method The in vitro MICs of test compounds were determined by a standard agar dilution method. A stock drug solution of each analog is prepared in the preferred solvent, usually DMSO:H2O (1:3). Serial 2-fold dilutions of each sample are made using 1.0 ml aliquots of sterile distilled water. To each 1.0 ml aliquot of drug is added 9 ml of molten Mueller Hinton agar medium. The drug-supplemented agar is mixed, poured into 15×100 mm petri dishes, and allowed to solidify and dry prior to inoculation. Vials of each of the test organisms are maintained frozen in the vapor phase of a liquid nitrogen freezer. Test cultures are grown overnight at 35° C. on the medium appropriate for the organism. Colonies are harvested with a sterile swab, and cell suspensions are prepared in Trypticase Soy broth (TSB) to equal the turbidity of a 0.5 McFarland standard. A 1:20 dilution of each suspension is made in TSB. […] The plates are incubated overnight at 35° C. Following incubation the Minimum Inhibitory Concentration (MIC μg/ml), the lowest concentration of drug that inhibits visible growth of the organism, is read and recorded.

[7] = Enterococcus faecalis, Table 1, Mueller Hinton agar, read-out: Oxazolidinone MIC Values (Gram+) EFAE 9217
[8] = Table II, key: Enterococcus faecalis, Mueller Hinton agar, read-out: EFAE 9217 MIC
[9] = Table 1, Mueller Hinton agar, read-out: Oxazolidinone MIC Values (Gram+) SAUR 9213
[10] = Table II, Mueller Hinton agar, read-out: SAUR 9213 MIC
[11] = Table 1, Mueller Hinton agar, read-out: Oxazolidinone MIC Values (Gram+) SPNE 9912
[12] = Table II, Mueller Hinton agar, read-out: SPNE 9912 MIC
[13] = Table 1, Mueller Hinton agar, read-out: Oxazolidinone MIC Values (Gram+) SPYO 152
[14] = Table II, Mueller Hinton agar, read-out: SPYO 152 MIC

Row | Compound | MIC (E. Faecium (EFAE 12712)) [µg/mL] | MIC [1, 7] [µg/mL] | MIC [1, 8] [µg/mL] | MIC [2] [µg/mL] | MIC [3] [µg/mL] | MIC (S. aureus (SAUR 9213); [9]) [µg/mL] | MIC (S. aureus (SAUR 9213); [10]) [µg/mL] | MIC [4] [µg/mL] | MIC [5, 11] [µg/mL] | MIC [5, 12] [µg/mL] | MIC (S. pyogenes (SPYO 152); [13]) [µg/mL] | MIC (S. pyogenes (SPYO 152); [14]) [µg/mL] | MIC [6] [µg/mL] | melting point
1 | CC(=O)NC[C@H]1CN(c2ccc(N3CCN(c4nnc(C)s4)CC3)c(F)c2)C(=O)O1 [reference compound] | – | 1 (≈ 2.3 µM) | – | – | – | 0.5 (≈ 1.15 µM) | – | – | 0.13 (≈ 0.299 µM) | – | 0.25 (≈ 0.575 µM) | – | 0.25 (≈ 0.575 µM) | –
2 | CC(=O)NC[C@H]1CN(c2ccc(N3CCC4(CC3)NC(=O)NC4=O)c(F)c2)C(=O)O1 [reference compound] | – | 8 (≈ 19.1 µM) | – | – | – | 16 (≈ 38.1 µM) | – | – | 0.5 (≈ 1.19 µM) | – | 1 (≈ 2.38 µM) | – | 4 (≈ 9.54 µM) | –
3 | O=C1O[C@@H](CNC=S)CN1c1ccc(N2CCOCC2)c(F)c1 [Example 13, (S)-N-[[3-[3-Fluoro-4-(4-morpholinyl)phenyl]-2-oxo-5-oxazolidinyl]methyl]-thioformamide] | 2 (≈ 5.89 µM) | – | 2 (≈ 5.89 µM) | > 16 | 8 (≈ 23.6 µM) | – | 1 (≈ 2.95 µM) | 1 (≈ 2.95 µM) | – | 0.5 (≈ 1.47 µM) | – | 1 (≈ 2.95 µM) | – | 150 to 155 °C (dec.)
4 | CC(=S)NC[C@H]1CN(c2ccc(N3CCN(C(=O)CO)CC3)c(F)c2)C(=O)O1 [Example 25, (S)-N-[[3-[3-Fluoro-4-[4-(hydroxyacetyl)-1-piperazinyl]phenyl]-2-oxo-5-oxazolidinyl]methyl]thioacetamide] | 0.5 (≈ 1.22 µM) | – | 0.5 (≈ 1.22 µM) | 2 (≈ 4.87 µM) | 2 (≈ 4.87 µM) | – | 0.5 (≈ 1.22 µM) | 0.25 (≈ 0.609 µM) | – | < 0.125 | – | < 0.125 | – | 163 to 165 °C
5 | CC(=S)NC[C@H]1CN(c2ccc3c(c2)CCN3C(=O)CO)C(=O)O1 [Example 24, (S)-N-[[3-[1-(Hydroxyacetyl)-5-indolinyl]-2-oxo-5-oxazolidinyl]methyl]thioacetamide] | 0.5 (≈ 1.43 µM) | – | 0.5 (≈ 1.43 µM) | 4 (≈ 11.4 µM) | 2 (≈ 5.72 µM) | – | 1 (≈ 2.86 µM) | 0.25 (≈ 0.715 µM) | – | < 0.125 | – | 0.25 (≈ 0.715 µM) | – | 175 to 176 °C (dec.)
6 | O=C1O[C@@H](CNC(=S)C(F)(F)F)CN1c1ccc(N2CCOCC2)c(F)c1 [Example 16, (S)-N-[[3-[3-Fluoro-4-(4-moropholinyl)phenyl]-2-oxo-5-oxazolidinyl]methyl]-α,α,α-trifluorothioacetamide] | 16 (≈ 39.3 µM) | – | 16 (≈ 39.3 µM) | > 64 | 32 (≈ 78.5 µM) | – | 8 (≈ 19.6 µM) | 8 (≈ 19.6 µM) | – | 2 (≈ 4.91 µM) | – | 8 (≈ 19.6 µM) | – | 151 to 152 °C
7 | CC(=S)NC[C@H]1CN(c2cc(F)c(N3CCN(C(=O)CO)CC3)c(F)c2)C(=O)O1 [Example 29, (S)-N-[[3-[3,5-Difluoro-4-[4-(hydroxyacetyl)-1-piperazinyl]phenyl]-2-oxo-5-oxazolidinyl]methyl]thioacetamide] | 0.25 (≈ 0.583 µM) | – | 0.25 (≈ 0.583 µM) | 2 (≈ 4.67 µM) | 0.5 (≈ 1.17 µM) | – | 0.25 (≈ 0.583 µM) | 0.25 (≈ 0.583 µM) | – | < 0.125 | – | < 0.125 | – | 110 to 111 °C (dec.)
8 | NC(=S)NC[C@H]1CN(c2ccc(-n3cncn3)c(F)c2)C(=O)O1 [Example 30] | 0.5 (≈ 1.49 µM) | – | 1 (≈ 2.97 µM) | 8 (≈ 23.8 µM) | 2 (≈ 5.95 µM) | – | 4 (≈ 11.9 µM) | 1 (≈ 2.97 µM) | – | < 0.125 | – | 0.25 (≈ 0.743 µM) | – | 214 to 215 °C

Other lines, results leading:

Row | MIC (E. Faecium (EFAE 12712)) [µg/mL] | MIC [1, 7] [µg/mL] | MIC [1, 8] [µg/mL] | MIC [2] [µg/mL] | MIC [3] [µg/mL] | MIC (S. aureus (SAUR 9213); [9]) [µg/mL] | MIC (S. aureus (SAUR 9213); [10]) [µg/mL] | MIC [4] [µg/mL] | MIC [5, 11] [µg/mL] | MIC [5, 12] [µg/mL] | MIC (S. pyogenes (SPYO 152); [13]) [µg/mL] | MIC (S. pyogenes (SPYO 152); [14]) [µg/mL] | MIC [6] [µg/mL] | melting point | Compound
9 | 0.5 (≈ 1.41 µM) | 0.5 (≈ 1.41 µM) | 0.5 (≈ 1.41 µM) | 8 (≈ 22.6 µM) | 1 (≈ 2.83 µM) | 1 (≈ 2.83 µM) | 1 (≈ 2.83 µM) | 0.25 (≈ 0.707 µM) | 0.13 (≈ 0.368 µM) | < 0.125 | 0.13 (≈ 0.368 µM) | < 0.125 | 0.25 (≈ 0.707 µM) | 157.5 to 158.5 °C | CC(=S)NC[C@H]1CN(c2ccc(N3CCOCC3)c(F)c2)C(=O)O1 [Example 1, (S)-N-[[3-[3-Fluoro-4-(4-morpholinyl)phenyl]-2-oxo-5-oxazolidinyl]methyl]thioacetamide]
10 | 0.5 (≈ 1.41 µM) | 0.5 (≈ 1.41 µM) | 0.5 (≈ 1.41 µM) | 4 (≈ 11.3 µM) | 2 (≈ 5.64 µM) | 1 (≈ 2.82 µM) | 1 (≈ 2.82 µM) | 0.5 (≈ 1.41 µM) | < 0.125 | < 0.125 | 0.25 (≈ 0.705 µM) | 0.25 (≈ 0.705 µM) | 0.25 (≈ 0.705 µM) | 199 to 199.5 °C | NC(=S)NC[C@H]1CN(c2ccc(N3CCOCC3)c(F)c2)C(=O)O1 [Example 5, (S)-N-[[3-[3-Fluoro-4-(4-morpholinyl)phenyl]-2-oxo-5-oxazolidinyl]methyl]thiourea]
11 | 1 (≈ 2.3 µM) | 2 (≈ 4.59 µM) | 2 (≈ 4.59 µM) | 16 (≈ 36.7 µM) | 4 (≈ 9.19 µM) | 4 (≈ 9.19 µM) | 4 (≈ 9.19 µM) | 1 (≈ 2.3 µM) | 0.25 (≈ 0.574 µM) | 0.25 (≈ 0.574 µM) | 0.5 (≈ 1.15 µM) | 0.5 (≈ 1.15 µM) | 1 (≈ 2.3 µM) | – | CC(=S)NC[C@H]1CN(c2ccc(N3CCC4(CC3)NC(=O)NC4=O)c(F)c2)C(=O)O1 [Example 3, (S)-N-[[3-[3-Fluoro-4-[2′,5′-dioxospiro[piperidine-4,4′-imidazolidine]-1-yl]phenyl]-2-oxo-5-oxazolidinyl]methyl]thioacetamide]
12 | 0.5 (≈ 1.3 µM) | – | 1 (≈ 2.59 µM) | 4 (≈ 10.4 µM) | 2 (≈ 5.19 µM) | – | 0.5 (≈ 1.3 µM) | 0.5 (≈ 1.3 µM) | – | < 0.125 | – | 0.25 (≈ 0.649 µM) | – | 176 to 177 °C | CC(=S)NC[C@H]1CN(c2ccc(N3CC[S+]([O-])CC3)c(F)c2)C(=O)O1 [Example 27, (S)-N-[[3-[3-Fluoro-4-(4-thiomorpholinyl)phenyl]-2-oxo-5-oxazolidinyl]methyl]thio-acetamide, thiomorpholine S-oxide]
13 | 2 (≈ 5.14 µM) | – | 2 (≈ 5.14 µM) | 32 (≈ 82.2 µM) | 4 (≈ 10.3 µM) | – | 2 (≈ 5.14 µM) | 1 (≈ 2.57 µM) | – | < 0.5 | – | 1 (≈ 2.57 µM) | – | 125 to 127 °C | O=C1O[C@@H](CNC(=S)C(F)F)CN1c1ccc(N2CCOCC2)c(F)c1 [Example 18, (S)-N-[[3-[3-Fluoro-4-(4-morpholinyl)phenyl]-2-oxo-5-oxazolidinyl]methyl]-α,α-difluorothioacetamide]
14 | 1 (≈ 2.71 µM) | – | 1 (≈ 2.71 µM) | 16 (≈ 43.3 µM) | 2 (≈ 5.41 µM) | – | 1 (≈ 2.71 µM) | 0.5 (≈ 1.35 µM) | – | 0.25 (≈ 0.677 µM) | – | 0.5 (≈ 1.35 µM) | – | 155 to 156 °C | CC(=S)NC[C@H]1CN(c2ccc(N3CCSCC3)c(F)c2)C(=O)O1 [Example 26, (S)-N-[[3-[3-Fluoro-4-(4-thiomorpholinyl)phenyl]-2-oxo-5-oxazolidinyl]methyl]thio-acetamide]
15 | – | 2 (≈ 5.93 µM) | – | – | – | 2 (≈ 5.93 µM) | – | – | 0.5 (≈ 1.48 µM) | – | 1 (≈ 2.96 µM) | – | 1 (≈ 2.96 µM) | – | CC(=O)NC[C@H]1CN(c2ccc(N3CCOCC3)c(F)c2)C(=O)O1 [reference compound]
